The numbers were not newly measured in patent US5211943A, “Pharmaceutical preparation for administration by percutaneous absorption and a method for their manufacture” (Chugai Seiyaku Kabushili Kaisha, priority 1986, dated 1993), which cites them from elsewhere.

In one data set the test system is coronary vessels. The conditions noted are these: Japanese Patent Publication 58-17463.
The conditions of data set [1]: oral; rapid increase of blood level.
For data set [2] the following is noted: high temperature or high humidity, or in solution; Iyakuhin Kenkyu vol. 14, 1983.

As for `O=C(NCCO[N+](=O)[O-])c1cccnc1` [Nicorandil, N-(2-hydroxyethyl)nicotinamide nitrate], the “effect on coronary vessels, coronary veins and heart” value in the data set on coronary vessels is “acts to dilate the coronary vessels and to inhibit contractions of the coronary veins, without much effect on the blood flow through the heart or on heart function”. The “side effects when given orally” value in data set [1] is “orthostatic hypotension and headache”. In addition, the stability entry in data set [2] was “relatively unstable”.
